Measurements: article PMC12136037, “Type II kinase inhibitors that target Parkinson’s disease–associated LRRK2” (Science Advances, 2025)

Assays:
Experiment in all cases: DSF 100 kinase selectivity screen;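 note: compound tested at 20 µM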
Assay type in all cases: binding
[1] = biological target: T1, ~100 representative kinases (Homo sapiens, UniProt O14733); settings: protein MAP2K7; average of three replicates
T1 construct: Recombinant protein kinase domains with a concentration of 2 μM
T1 sequence (O14733 1-419): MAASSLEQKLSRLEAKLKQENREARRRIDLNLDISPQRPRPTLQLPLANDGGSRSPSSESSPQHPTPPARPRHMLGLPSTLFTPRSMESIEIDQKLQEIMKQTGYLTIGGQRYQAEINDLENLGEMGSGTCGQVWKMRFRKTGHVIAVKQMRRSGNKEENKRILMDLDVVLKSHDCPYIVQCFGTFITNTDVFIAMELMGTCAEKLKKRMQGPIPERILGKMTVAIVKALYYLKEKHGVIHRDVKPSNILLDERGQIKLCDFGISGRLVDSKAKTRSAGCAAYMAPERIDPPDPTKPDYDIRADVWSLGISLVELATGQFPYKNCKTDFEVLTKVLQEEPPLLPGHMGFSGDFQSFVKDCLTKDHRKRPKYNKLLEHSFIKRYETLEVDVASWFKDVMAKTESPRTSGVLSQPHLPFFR
Outline: (§1)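 Each kinase domain, at 2 μM, is mixed with 20 μM test compound and SYPRO Orange in Hepes (20 mM, pH 7.5) with 500 mM NaCl. Temperature is then raised at 3°C/min and fluorescence-monitored unfolding yields the melting temperature change, ΔTm in degrees Celsius.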

[2] = biological target: T2, ~100 representative kinases (Homo sapiens, UniProt Q9UPE1); settings: Protein SRPK3; DSF; average of three replicates
T2 construct: Recombinant protein kinase domains with a concentration of 2 μM
T2 sequence (Q9UPE1 whole entry, the tested form may be a part): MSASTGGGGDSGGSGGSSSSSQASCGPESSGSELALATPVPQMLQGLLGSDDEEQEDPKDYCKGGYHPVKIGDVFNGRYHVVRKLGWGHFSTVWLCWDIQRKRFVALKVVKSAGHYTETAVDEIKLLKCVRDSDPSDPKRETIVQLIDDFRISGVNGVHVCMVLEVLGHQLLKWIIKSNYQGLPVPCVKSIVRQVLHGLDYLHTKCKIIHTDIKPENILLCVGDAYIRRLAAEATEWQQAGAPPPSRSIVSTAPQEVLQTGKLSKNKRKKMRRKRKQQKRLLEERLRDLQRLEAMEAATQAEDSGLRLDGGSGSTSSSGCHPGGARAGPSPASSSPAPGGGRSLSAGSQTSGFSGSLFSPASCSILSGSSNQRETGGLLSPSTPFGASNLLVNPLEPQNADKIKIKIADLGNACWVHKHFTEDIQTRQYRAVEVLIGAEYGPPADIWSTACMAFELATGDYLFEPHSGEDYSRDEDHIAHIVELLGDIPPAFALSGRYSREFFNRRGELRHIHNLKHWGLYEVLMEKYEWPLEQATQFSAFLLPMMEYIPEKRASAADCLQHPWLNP
Outline: as §1

[3] = biological target: T3, ~100 representative kinases (Homo sapiens, UniProt Q8IU85); settings: Protein CAMK1D; average of three replicates
T3 construct: Recombinant protein kinase domains with a concentration of 2 μM
T3 sequence (Q8IU85 whole entry, the tested form may be a part): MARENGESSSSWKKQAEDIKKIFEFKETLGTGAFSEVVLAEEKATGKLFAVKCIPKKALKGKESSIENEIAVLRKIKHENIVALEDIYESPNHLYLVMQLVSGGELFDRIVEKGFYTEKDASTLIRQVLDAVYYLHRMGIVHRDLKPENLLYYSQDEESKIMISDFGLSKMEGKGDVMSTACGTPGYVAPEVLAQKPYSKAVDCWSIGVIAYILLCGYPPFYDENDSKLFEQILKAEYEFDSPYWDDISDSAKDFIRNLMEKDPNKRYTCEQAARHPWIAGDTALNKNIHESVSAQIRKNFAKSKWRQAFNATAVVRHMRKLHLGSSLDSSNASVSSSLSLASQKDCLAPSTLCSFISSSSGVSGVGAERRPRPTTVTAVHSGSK
Outline: as §1

[4] = biological target: T4, ~100 representative kinases (Homo sapiens, UniProt Q99683); settings: protein MAP3K5; average of three replicates
T4 construct: Recombinant protein kinase domains with a concentration of 2 μM
T4 sequence (Q99683 1-1374): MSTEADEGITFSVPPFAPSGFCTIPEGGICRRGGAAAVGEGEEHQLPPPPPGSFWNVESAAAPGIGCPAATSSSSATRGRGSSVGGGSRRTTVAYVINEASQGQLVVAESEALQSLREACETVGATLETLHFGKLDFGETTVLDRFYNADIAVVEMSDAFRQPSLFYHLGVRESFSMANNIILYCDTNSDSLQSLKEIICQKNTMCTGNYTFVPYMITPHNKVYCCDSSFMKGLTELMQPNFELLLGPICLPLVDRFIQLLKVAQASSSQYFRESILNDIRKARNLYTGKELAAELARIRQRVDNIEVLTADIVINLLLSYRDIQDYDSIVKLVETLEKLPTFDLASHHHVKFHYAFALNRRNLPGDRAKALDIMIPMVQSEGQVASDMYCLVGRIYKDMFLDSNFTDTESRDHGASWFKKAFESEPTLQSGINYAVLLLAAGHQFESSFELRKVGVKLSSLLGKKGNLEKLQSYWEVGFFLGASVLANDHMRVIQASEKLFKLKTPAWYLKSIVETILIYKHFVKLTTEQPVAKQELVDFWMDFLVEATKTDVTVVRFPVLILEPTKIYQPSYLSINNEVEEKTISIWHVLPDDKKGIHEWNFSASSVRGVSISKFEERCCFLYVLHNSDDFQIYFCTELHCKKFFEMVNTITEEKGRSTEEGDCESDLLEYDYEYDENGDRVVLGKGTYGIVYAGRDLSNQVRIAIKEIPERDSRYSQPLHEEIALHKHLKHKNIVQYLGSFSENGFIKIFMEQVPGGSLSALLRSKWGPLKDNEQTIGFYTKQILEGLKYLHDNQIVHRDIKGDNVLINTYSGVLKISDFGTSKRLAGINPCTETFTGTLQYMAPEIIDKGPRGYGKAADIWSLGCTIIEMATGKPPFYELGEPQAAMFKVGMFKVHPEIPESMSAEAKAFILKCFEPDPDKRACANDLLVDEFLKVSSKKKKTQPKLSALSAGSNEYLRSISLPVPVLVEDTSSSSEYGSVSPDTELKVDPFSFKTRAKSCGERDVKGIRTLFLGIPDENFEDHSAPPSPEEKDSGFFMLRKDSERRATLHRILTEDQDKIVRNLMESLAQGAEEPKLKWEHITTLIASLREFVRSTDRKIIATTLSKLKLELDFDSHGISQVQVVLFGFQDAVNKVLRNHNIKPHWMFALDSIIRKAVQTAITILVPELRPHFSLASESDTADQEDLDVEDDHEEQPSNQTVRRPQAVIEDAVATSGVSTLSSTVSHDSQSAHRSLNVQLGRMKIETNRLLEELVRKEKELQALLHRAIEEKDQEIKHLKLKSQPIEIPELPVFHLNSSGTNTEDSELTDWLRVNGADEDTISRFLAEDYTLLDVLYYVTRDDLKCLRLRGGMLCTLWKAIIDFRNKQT
Outline: as §1

[5] = biological target: T5, ~100 representative kinases (Homo sapiens, UniProt P15056); settings: Protein BRAF; average of three replicates
T5 construct: Recombinant protein kinase domains with a concentration of 2 μM
T5 sequence (P15056 whole entry, the tested form may be a part): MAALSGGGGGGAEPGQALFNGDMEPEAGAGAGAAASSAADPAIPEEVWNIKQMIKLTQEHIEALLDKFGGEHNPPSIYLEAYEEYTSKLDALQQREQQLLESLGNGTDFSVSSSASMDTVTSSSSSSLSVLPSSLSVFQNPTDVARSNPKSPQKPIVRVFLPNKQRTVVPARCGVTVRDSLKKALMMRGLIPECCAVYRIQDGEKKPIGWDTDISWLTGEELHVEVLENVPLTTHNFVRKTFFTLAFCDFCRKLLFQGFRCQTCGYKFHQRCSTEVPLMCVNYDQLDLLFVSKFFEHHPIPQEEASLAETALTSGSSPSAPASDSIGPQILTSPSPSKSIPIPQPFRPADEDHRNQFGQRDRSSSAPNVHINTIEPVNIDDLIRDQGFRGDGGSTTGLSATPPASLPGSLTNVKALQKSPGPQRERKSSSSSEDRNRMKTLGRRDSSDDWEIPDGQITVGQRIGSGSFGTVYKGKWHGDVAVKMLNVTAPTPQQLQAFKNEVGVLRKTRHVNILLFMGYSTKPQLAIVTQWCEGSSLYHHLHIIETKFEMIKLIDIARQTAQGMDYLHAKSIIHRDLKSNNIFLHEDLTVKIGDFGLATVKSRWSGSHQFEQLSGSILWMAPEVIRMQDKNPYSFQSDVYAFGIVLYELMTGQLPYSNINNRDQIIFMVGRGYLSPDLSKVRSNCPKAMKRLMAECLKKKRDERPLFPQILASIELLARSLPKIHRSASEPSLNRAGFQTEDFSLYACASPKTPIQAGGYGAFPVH
Outline: as §1

[6] = biological target: T6, ~100 representative kinases (Homo sapiens, UniProt P68400); settings: Protein CK2A1; average of three replicates
T6 construct: Recombinant protein kinase domains with a concentration of 2 μM
T6 sequence (P68400 whole entry, the tested form may be a part): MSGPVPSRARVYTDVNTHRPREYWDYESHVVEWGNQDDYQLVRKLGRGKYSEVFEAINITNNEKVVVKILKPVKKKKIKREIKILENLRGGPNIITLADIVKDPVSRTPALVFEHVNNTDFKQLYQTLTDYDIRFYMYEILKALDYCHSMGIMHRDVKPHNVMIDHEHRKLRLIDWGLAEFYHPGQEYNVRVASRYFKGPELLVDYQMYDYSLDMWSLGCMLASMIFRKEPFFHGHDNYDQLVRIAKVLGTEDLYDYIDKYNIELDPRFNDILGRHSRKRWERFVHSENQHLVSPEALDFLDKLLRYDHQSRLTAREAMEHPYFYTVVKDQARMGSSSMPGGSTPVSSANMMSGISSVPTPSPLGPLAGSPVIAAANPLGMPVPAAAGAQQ
Outline: as §1

[7] = biological target: T7, ~100 representative kinases (Homo sapiens, UniProt P49759); settings: Protein CLK1; average of three replicates
T7 construct: Recombinant protein kinase domains with a concentration of 2 μM
T7 sequence (P49759 whole entry, the tested form may be a part): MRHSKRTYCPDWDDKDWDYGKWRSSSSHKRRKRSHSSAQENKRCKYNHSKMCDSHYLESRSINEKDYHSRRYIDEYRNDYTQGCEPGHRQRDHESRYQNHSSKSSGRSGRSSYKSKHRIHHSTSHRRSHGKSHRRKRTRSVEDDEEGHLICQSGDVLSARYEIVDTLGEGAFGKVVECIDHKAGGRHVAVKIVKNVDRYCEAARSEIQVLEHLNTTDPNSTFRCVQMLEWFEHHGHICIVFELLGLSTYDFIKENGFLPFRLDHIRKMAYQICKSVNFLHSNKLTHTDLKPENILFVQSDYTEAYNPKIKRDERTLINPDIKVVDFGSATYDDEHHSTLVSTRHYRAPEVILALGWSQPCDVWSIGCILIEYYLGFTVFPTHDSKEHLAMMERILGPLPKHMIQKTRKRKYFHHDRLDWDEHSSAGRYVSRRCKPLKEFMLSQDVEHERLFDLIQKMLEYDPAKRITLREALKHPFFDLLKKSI
Outline: as §1

[8] = biological target: T8, ~100 representative kinases (Homo sapiens, UniProt P48730); settings: Protein CSNK1D; average of three replicates
T8 construct: Recombinant protein kinase domains with a concentration of 2 μM
T8 sequence (P48730 whole entry, the tested form may be a part): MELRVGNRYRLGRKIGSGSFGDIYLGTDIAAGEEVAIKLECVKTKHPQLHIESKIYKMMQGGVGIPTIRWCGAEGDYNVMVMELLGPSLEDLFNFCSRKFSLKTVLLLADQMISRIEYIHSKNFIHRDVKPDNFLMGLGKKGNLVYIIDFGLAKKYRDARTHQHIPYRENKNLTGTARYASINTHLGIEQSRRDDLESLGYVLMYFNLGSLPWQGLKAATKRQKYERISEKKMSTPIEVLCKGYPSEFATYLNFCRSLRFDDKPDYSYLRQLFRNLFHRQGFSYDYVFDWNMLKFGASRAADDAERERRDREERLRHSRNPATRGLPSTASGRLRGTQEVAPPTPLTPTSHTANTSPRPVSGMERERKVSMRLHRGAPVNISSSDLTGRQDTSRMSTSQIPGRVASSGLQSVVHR
Outline: as §1

[9] = biological target: T9, ~100 representative kinases (Homo sapiens, UniProt P53779); settings: protein MAPK10; average of three replicates
T9 construct: Recombinant protein kinase domains with a concentration of 2 μM
T9 sequence (P53779 whole entry, the tested form may be a part): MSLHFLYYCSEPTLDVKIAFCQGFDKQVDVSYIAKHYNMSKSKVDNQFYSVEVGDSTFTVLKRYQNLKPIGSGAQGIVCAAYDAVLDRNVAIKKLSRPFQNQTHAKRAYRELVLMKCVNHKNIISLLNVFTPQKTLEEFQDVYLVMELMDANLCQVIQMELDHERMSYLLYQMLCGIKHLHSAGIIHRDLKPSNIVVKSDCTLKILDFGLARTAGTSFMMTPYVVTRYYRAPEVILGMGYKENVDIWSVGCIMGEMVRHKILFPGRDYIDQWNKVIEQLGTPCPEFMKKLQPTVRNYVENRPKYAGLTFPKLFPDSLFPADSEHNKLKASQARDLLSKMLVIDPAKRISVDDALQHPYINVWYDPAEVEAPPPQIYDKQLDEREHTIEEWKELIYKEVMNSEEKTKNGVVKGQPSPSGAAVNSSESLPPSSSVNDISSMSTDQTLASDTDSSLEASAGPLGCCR
Outline: as §1

| SMILES | dTm [1] [K] | dTm [2] [K] | dTm [3] [K] | dTm [4] [K] | dTm [5] [K] | dTm [6] [K] | dTm [7] [K] | dTm [8] [K] | dTm [9] [K] |
| --- | --- | --- | --- | --- | --- | --- | --- | --- | --- |
| O=C(Nc1cccc(-c2c[nH]c3ncnc(N4CCOCC4)c23)c1)C1(C(=O)Nc2cccc3c2CCC3)CC1 [Compound 11] | 4.41 | 3.94 | 1.59 | 3.33 | 10.02 | -1.70 | 7.29 | 1.21 | 5.69 |
| Cc1ccc(NC(=O)C2(C(=O)Nc3cccc(-c4c[nH]c5ncnc(N6CCOCC6)c45)c3)CC2)cc1 [Compound 14] | 2.82 | 5.15 | -1.76 | 1.35 | 8.39 | 1.79 | 6.84 | 1.58 | -1.31 |
| O=C(Nc1ccc(Cl)cc1)C1(C(=O)Nc2cccc(-c3c[nH]c4ncnc(N5CCOCC5)c34)c2)CC1 [Compound 13] | 4.62 | 8.47 | 0.67 | 4.01 | 10.34 | 0.00 | 9.39 | 2.99 | 3.61 |
| O=C(Nc1ccc(F)cc1)C1(C(=O)Nc2cccc(-c3c[nH]c4ncnc(N5CCOCC5)c34)c2)CC1 [Compound 2] | 4.21 | 6.73 | -1.26 | 3.63 | 9.50 | 0.00 | 9.06 | 2.09 | -0.56 |
| COc1ccc(NC(=O)C2(C(=O)Nc3cccc(-c4c[nH]c5ncnc(N6CCOCC6)c45)c3)CC2)cc1 [Compound 16] | 0.55 | 2.74 | -1.41 | 0.46 | 4.18 | 1.00 | 7.75 | 0.92 | 0.65 |
| CCc1ccc(NC(=O)C2(C(=O)Nc3cccc(-c4c[nH]c5ncnc(N6CCOCC6)c45)c3)CC2)cc1 [Compound 15] | 3.12 | 3.89 | -1.11 | 1.27 | 9.26 | 2.19 | 6.65 | 1.30 | -0.66 |
| O=C(Nc1cccc(-c2c[nH]c3ncnc(N4CCOCC4)c23)c1)C1(C(=O)Nc2ccc(F)c(F)c2)CC1 [Compound 17] | 4.27 | 5.74 | -0.44 | 3.32 | 7.80 | -0.81 | 8.95 | 2.63 | 1.84 |

Now from value to molecule:

| dTm [1] [K] | dTm [2] [K] | dTm [3] [K] | dTm [4] [K] | dTm [5] [K] | dTm [6] [K] | dTm [7] [K] | dTm [8] [K] | dTm [9] [K] | SMILES |
| --- | --- | --- | --- | --- | --- | --- | --- | --- | --- |
| 5.35 | 7.93 | 1.04 | 3.67 | 10.73 | -0.75 | 9.40 | 3.14 | 3.57 | O=C(Nc1cccc(-c2c[nH]c3ncnc(N4CCOCC4)c23)c1)C1(C(=O)Nc2ccc(F)c(Cl)c2)CC1 [Compound 18] |
| 2.56 | 1.84 | 1.95 | 6.66 | -0.49 | 2.03 | 8.96 | 4.03 | 5.50 | COc1cc(C(=O)N2CCOCC2)c(F)cc1Nc1nc(N(C)C)c2c(Cl)c[nH]c2n1 [Compound 36] |
| 3.14 | 1.90 | -2.03 | 1.15 | 8.44 | 0.65 | 5.49 | 1.47 | -0.11 | Cc1cc(F)ccc1NC(=O)C1(C(=O)Nc2cccc(-c3c[nH]c4ncnc(N5CCOCC5)c34)c2)CC1 [Compound 24] |
| -0.81 | 0.46 | 0.49 | 1.09 | 0.14 | 0.51 | 5.62 | 2.29 | 2.71 | COc1cc(S(C)(=O)=O)ccc1Nc1nc(N(C)C)c2c(Cl)c[nH]c2n1 [Compound 37] |
| 3.31 | 2.55 | 2.09 | 3.03 | 9.02 | -1.70 | 6.34 | 0.95 | 5.85 | O=C(Nc1cccc(-c2c[nH]c3ncnc(N4CCOCC4)c23)c1)C1(C(=O)Nc2ccc(F)c(Br)c2F)CC1 [Compound 26] |
| 4.70 | 6.09 | 1.72 | 4.49 | 37.18 | 0.69 | 17.42 | 0.95 | 3.60 | Cc1ccc(-n2nc(C(C)(C)C)cc2NC(=O)Nc2cccc(-c3c[nH]c4ncnc(N5CCOCC5)c34)c2)cc1 [Compound 29] |
| 4.61 | 6.98 | -0.74 | 2.37 | 10.93 | 1.43 | 10.73 | 3.13 | 0.29 | COc1cc(NC(=O)C2(C(=O)Nc3cccc(-c4c[nH]c5ncnc(N6CCOCC6)c45)c3)CC2)ccc1F [Compound 21] |
| 3.02 | 3.28 | 3.75 | 2.91 | 11.56 | -3.68 | 4.99 | -0.29 | 3.64 | O=C(Nc1cccc(-c2c[nH]c3ncnc(N4CCOCC4)c23)c1)C1(C(=O)Nc2cc(Br)c(F)cc2F)CC1 [Compound 25] |
| 3.41 | 0.82 | 1.52 | 3.40 | 6.66 | -1.92 | 7.78 | -0.55 | 5.93 | O=C(Nc1cc(F)cc(Br)c1)C1(C(=O)Nc2cccc(-c3c[nH]c4ncnc(N5CCOCC5)c34)c2)CC1 [Compound 27] |
